The target of assay [1] is Cystic fibrosis transmembrane conductance regulator/Golgi-associated PDZ and coiled-coil motif-containing protein (Homo sapiens, UniProt P13569+Q9HD26). The experiment in a line: potency against CAL PDZ-peptide interaction – biochemical, fluorescence polarization, Cerulean-tagged CAL PDZ, cherry-picks, dose response (AID 504773). A general note: In fluorescence polarisation assays a small probe gives low polarisation when free and higher when bound to something large.

Assay [2] concerns the target Protein Rev (Human immunodeficiency virus type 1 group M subtype B (isolate HXB2)(HIV-1), UniProt P04618). The experiment in a line: blockers of HIV Rev/RRE RNA complex – biochemical, fluorescence polarization, HIV-1, dose response (AID 434976). On the set-up: species or system Human immunodeficiency virus 1.
Assay [3] addresses Female germline-specific tumor suppressor gld-1 (Caenorhabditis elegans, UniProt Q17339). In words: blockers of GLD-1/TGE RNA complex formation – biochemical, fluorescence polarization, C. elegans, dose response (AID 2802).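 Note: fluorescence polarization of labeled TGE RNA bound by purified gld-1 protein.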
The target of assay [4] is T1, RNA-binding protein pos-1 (Caenorhabditis elegans, UniProt G5EF15).
T1 sequence (G5EF15 whole entry): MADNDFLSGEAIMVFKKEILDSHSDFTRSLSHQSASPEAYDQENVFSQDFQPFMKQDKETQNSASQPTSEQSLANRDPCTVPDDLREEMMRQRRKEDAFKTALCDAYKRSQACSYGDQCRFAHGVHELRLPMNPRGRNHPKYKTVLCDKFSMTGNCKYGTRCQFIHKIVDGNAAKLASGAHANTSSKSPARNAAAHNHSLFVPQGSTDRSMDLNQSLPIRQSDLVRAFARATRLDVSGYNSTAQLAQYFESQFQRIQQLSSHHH
In words: disruptors of C. elegans POS-1 RNA interaction – biochemical, fluorescence polarization, dose response (AID 1964).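 Note: purified POS-1 fused to maltose binding protein made in E. coli; potency of compounds blocking POS-1 binding to fluorescent RNA.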

Assay [5] concerns the target T2, Zinc finger protein mex-5 (Caenorhabditis elegans, UniProt Q9XUB2).
T2 sequence (Q9XUB2 whole entry): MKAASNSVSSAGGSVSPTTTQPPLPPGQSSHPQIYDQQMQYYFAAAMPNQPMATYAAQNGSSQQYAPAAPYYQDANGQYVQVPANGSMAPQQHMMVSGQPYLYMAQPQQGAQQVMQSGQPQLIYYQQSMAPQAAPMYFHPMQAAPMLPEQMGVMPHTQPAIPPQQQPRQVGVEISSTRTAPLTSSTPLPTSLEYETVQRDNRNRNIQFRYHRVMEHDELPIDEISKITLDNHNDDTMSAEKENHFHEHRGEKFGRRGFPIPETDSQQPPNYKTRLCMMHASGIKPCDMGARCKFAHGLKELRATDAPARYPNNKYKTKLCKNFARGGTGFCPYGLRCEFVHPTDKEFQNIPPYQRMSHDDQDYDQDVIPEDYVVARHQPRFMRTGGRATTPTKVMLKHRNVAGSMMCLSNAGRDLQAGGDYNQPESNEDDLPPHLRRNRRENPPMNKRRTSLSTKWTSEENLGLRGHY
The experiment in a line: potency of MEX-5 RNA-binding blockers – biochemical, C. elegans, fluorescence polarization, dose response (AID 1960).

In assay [6] the target is T3, Long-chain-fatty-acid--AMP ligase FadD28 (Mycobacterium tuberculosis, UniProt P9WQ59).
T3 sequence (P9WQ59 whole entry): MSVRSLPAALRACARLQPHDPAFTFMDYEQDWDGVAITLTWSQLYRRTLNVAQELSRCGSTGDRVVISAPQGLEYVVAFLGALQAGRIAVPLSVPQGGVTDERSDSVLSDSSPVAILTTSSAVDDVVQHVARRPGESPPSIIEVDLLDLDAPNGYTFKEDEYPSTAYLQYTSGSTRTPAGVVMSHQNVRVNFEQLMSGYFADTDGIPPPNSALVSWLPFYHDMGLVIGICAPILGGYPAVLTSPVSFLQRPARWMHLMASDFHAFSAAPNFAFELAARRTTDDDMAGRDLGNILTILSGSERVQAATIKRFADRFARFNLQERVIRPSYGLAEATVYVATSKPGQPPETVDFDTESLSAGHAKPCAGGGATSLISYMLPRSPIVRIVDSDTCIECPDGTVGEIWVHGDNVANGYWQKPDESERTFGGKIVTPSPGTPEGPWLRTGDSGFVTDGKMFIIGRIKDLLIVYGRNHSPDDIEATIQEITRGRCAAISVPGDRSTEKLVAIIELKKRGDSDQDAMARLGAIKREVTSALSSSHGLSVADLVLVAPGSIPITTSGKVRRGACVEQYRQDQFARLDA
In words: Fluorescence polarization aasay to screen for inhibitors that compete for the binding of FadD28 to a bisubstrate Measured in Biochemical System Using Plate Reader - 2147-01_Inhibitor_Dose_CherryPick_Activity. The assay is classed as functional, Mycobacterium tuberculosis H37Rv.

Assay [7] has as its target Protein S100-A4 (Homo sapiens, UniProt P26447). In words: human S100A4 peptide interaction inhibition curves – biochemical, fluorescence polarization, cherry-picked hits, dose response (AID 687001). The assay is classed as functional.
In assay [8] the target is T4, Histone-lysine N-methyltransferase NSD2 (Homo sapiens, UniProt O96028).
T4 sequence (O96028 whole entry): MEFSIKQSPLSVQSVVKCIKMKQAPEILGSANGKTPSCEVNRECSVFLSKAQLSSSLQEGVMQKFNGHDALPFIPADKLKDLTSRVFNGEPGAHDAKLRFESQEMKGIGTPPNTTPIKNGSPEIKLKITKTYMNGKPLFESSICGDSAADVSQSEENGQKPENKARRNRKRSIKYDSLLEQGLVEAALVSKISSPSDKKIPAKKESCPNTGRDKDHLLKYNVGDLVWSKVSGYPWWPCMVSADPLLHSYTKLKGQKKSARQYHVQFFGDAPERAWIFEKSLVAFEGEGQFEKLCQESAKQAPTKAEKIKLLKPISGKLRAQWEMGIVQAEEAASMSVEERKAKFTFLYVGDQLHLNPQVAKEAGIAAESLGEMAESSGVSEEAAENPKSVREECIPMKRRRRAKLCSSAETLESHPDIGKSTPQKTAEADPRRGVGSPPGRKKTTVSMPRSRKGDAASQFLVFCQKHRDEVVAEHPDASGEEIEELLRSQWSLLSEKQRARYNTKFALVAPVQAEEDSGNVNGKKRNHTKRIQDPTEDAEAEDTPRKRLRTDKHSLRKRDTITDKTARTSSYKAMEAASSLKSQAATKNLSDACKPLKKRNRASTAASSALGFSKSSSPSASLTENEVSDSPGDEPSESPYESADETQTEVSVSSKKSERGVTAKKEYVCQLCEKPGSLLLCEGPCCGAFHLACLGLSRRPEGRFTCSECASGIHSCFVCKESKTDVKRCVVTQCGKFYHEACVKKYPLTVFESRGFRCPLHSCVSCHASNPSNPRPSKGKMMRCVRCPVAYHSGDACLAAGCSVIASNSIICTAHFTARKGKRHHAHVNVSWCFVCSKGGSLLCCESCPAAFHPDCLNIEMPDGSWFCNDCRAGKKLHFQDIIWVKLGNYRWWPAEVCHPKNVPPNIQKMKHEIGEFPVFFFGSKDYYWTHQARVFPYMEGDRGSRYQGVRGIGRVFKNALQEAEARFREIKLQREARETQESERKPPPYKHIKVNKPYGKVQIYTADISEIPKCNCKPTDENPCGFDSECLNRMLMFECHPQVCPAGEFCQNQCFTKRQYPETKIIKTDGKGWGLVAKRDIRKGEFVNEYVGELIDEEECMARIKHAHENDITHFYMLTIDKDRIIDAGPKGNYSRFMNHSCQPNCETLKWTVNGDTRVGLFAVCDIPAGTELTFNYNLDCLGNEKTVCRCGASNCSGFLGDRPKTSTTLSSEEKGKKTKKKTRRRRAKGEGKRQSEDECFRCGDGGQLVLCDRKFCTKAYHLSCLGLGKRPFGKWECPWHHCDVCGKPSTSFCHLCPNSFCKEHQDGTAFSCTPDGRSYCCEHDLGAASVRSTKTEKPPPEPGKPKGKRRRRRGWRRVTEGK
The assay is classed as biochemical.

Assay [9] deals with T5, Fibrinogen beta chain (Homo sapiens, UniProt P02675). In words: Fluorescence polarization-based biochemical high throughput dose response assay to identify inhibitors that disrupt the binding of a cyclic peptide (Tn6) to the fibrin proteolytic product D-Dimer and fragment E complex [DD(E )].
For assay [10], the target named is T5, Fibrinogen beta chain. In words: Fluorescence polarization-based biochemical high throughput dose response assay to identify inhibitors that disrupt the binding of a cyclic peptide (Tn7) to the fibrin proteolytic product D-Dimer and fragment E complex [DD(E )].
Assay [11] addresses Melanin-concentrating hormone receptor 1 (Homo sapiens, UniProt Q99705). In words: Late-stage fluorescence-based counterscreen for antagonists of the G-protein coupled receptor 7 (GPR7): cell-based dose response assay to identify antagonists of the melanin-concentrating hormone receptor 1 (MCHR1). [Related pubchem assays (depositor defined):AID1861, AID1880, AID1952, AID2148, AID2251, AID2257, AID485339]. It counts as functional. (A counterscreen serves to expose hits that act by an unwanted route or on another target.)

For assay [12], the target named is T6, Neuropeptides B/W receptor type 1 (Homo sapiens, UniProt P48145).
T6 sequence (P48145 whole entry): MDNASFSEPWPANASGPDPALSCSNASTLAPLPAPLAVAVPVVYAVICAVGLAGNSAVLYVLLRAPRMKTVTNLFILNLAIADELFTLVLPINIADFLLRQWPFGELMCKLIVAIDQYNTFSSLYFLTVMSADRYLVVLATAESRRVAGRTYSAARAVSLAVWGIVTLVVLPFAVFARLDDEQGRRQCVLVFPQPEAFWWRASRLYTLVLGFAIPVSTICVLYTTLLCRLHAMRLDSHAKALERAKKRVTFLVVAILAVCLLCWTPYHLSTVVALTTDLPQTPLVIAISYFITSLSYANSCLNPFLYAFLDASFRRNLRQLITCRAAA
In words: human NPBW1 receptor blockade, IC50 – cell-based, fluorescence, dose response, late-stage follow-up (AID 463251). It counts as functional.

SMILES strings stand for the structures. Calls of active or inactive are those of the source.

T5 sequence (P02675 whole entry, the tested form may be a part): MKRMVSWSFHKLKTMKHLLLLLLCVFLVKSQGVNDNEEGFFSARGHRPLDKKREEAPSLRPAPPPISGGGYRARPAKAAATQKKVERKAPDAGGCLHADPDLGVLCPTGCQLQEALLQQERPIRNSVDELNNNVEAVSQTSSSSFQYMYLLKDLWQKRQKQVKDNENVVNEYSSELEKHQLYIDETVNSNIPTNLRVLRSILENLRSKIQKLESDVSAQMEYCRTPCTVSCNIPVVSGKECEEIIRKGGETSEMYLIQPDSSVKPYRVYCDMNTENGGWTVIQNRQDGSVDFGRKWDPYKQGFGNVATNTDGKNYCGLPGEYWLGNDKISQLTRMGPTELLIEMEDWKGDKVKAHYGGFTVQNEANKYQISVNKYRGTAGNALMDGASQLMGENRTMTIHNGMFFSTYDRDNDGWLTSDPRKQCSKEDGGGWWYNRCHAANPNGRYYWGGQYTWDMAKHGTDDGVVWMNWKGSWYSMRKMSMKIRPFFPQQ
Chain of Protein Rev (P04618 whole entry): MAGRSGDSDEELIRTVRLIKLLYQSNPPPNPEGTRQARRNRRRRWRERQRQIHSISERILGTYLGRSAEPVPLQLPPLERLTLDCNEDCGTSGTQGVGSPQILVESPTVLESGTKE
Chain of Female germline-specific tumor suppressor gld-1 (Q17339 whole entry): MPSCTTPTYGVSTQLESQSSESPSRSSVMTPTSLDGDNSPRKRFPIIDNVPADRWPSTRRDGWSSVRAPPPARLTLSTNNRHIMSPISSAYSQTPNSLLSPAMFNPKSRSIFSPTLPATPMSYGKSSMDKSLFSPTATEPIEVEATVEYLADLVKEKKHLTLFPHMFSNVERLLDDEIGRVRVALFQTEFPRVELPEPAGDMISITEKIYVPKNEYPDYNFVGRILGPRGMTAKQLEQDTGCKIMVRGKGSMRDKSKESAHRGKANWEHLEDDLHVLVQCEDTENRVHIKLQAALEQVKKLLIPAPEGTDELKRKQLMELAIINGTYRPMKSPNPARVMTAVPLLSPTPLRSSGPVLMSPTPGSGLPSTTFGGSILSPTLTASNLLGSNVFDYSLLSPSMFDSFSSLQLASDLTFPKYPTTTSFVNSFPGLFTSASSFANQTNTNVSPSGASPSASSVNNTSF
Chain of Cystic fibrosis transmembrane conductance regulator/Golgi-associated PDZ and coiled-coil motif-containing protein (P13569 whole entry, other chains not shown): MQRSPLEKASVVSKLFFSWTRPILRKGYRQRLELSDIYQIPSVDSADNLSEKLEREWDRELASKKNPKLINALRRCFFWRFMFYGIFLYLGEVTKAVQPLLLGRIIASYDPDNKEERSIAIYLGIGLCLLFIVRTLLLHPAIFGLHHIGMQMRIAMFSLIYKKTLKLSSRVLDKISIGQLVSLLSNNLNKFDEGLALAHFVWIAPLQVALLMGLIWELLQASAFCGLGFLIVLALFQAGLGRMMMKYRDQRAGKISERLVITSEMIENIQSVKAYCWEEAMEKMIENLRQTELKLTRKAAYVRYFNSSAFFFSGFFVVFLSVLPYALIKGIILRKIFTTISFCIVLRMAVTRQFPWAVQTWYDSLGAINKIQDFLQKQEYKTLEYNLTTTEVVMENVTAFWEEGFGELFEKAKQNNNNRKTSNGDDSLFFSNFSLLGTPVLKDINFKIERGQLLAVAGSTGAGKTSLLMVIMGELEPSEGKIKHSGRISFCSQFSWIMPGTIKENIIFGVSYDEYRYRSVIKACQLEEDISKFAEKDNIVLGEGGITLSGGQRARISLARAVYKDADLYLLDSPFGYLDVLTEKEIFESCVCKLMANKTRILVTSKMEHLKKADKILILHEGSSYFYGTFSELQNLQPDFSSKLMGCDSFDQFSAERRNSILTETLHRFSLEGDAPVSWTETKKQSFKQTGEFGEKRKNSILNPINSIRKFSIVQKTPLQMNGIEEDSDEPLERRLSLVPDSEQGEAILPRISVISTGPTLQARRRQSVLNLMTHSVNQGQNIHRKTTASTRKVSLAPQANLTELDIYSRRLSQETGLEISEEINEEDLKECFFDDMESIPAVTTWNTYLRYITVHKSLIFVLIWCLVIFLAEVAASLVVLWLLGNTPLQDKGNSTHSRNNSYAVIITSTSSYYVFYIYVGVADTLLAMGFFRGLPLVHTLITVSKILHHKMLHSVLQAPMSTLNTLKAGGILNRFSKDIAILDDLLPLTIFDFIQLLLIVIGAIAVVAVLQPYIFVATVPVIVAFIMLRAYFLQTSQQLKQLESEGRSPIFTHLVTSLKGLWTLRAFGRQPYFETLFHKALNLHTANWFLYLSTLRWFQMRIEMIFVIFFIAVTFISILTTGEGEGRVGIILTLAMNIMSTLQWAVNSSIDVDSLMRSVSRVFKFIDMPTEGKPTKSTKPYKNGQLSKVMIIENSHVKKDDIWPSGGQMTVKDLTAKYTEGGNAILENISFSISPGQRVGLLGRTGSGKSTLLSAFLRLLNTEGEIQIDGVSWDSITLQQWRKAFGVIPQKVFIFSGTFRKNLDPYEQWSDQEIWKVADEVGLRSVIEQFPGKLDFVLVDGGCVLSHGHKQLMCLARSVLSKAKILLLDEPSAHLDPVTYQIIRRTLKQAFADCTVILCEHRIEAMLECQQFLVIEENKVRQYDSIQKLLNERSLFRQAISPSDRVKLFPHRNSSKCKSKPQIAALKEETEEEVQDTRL
Chain of Protein S100-A4 (P26447 whole entry): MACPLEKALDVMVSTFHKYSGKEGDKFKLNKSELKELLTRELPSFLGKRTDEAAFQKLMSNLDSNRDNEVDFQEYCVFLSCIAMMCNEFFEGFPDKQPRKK
Chain of Melanin-concentrating hormone receptor 1 (Q99705 whole entry): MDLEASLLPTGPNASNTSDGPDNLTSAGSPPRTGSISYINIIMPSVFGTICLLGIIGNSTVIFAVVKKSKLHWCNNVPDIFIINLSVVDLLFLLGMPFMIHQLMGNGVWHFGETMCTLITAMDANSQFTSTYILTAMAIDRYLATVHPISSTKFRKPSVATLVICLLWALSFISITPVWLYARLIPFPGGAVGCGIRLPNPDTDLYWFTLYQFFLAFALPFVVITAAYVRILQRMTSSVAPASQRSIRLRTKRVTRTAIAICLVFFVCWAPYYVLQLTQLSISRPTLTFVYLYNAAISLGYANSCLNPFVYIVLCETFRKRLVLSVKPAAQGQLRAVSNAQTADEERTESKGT

With `Cc1sc(NC(=O)c2ccco2)c(C(Nc2ccccn2)c2ccccc2)c1C` (configuration not stated), the AC50 in assay [1] is 60.1 µM (active).

Regarding `Cn1c(=O)cc2c3c(c(N4CCCCC4)ccc31)C(=O)c1ccccc1-2`, the IC50 in [2] is 14.2 µM (not active); in assay [3], 4.96 µM (active); in assay [9], > 27.8 µM (inactive); in assay [10] it was > 83.3 µM (inactive). Further, the results for the EC50 in assay [4] and in assay [5] were > 300 µM (inconclusive) and 25.9 µM (active), respectively. The results for the AC50 in assay [6], in assay [7] and in assay [8] were 11.8 µM (active), 1.72 µM (active) and 12.3 µM (active), respectively.

As for `COc1ccc(Oc2c(Cl)cnn(-c3cc(C(F)(F)F)cc(C(F)(F)F)c3)c2=O)cc1`, the IC50 in assay [11] was 1.5 µM (active); in assay [12] it was 1.2 µM (active).

As a reminder, the AC50 is the midpoint of the concentration-response curve, whichever way the signal moves. For orientation: IC50 means the concentration that gives 50% inhibition. By EC50 is commonly meant the concentration giving half of the maximal effect.

Source of the values: ChEMBL document CHEMBL1201862, “PubChem BioAssay data set” (2004).
